Laboratory results reported in patent publication US12448395B2 (BRISTOL-MYERS SQUIBB COMPANY, priority 2019, dated 2025).

The compounds below were run against T1, human TLR8 (Homo sapiens, UniProt Q9NR97) (assay: TLR8 inhibition reporter assay (HEK-Blue SEAP, R848 stimulation)). Settings: HEK-Blue cells overexpressing human TLR8, R848 15.9 μM.
T1 sequence (Q9NR97 27-1041): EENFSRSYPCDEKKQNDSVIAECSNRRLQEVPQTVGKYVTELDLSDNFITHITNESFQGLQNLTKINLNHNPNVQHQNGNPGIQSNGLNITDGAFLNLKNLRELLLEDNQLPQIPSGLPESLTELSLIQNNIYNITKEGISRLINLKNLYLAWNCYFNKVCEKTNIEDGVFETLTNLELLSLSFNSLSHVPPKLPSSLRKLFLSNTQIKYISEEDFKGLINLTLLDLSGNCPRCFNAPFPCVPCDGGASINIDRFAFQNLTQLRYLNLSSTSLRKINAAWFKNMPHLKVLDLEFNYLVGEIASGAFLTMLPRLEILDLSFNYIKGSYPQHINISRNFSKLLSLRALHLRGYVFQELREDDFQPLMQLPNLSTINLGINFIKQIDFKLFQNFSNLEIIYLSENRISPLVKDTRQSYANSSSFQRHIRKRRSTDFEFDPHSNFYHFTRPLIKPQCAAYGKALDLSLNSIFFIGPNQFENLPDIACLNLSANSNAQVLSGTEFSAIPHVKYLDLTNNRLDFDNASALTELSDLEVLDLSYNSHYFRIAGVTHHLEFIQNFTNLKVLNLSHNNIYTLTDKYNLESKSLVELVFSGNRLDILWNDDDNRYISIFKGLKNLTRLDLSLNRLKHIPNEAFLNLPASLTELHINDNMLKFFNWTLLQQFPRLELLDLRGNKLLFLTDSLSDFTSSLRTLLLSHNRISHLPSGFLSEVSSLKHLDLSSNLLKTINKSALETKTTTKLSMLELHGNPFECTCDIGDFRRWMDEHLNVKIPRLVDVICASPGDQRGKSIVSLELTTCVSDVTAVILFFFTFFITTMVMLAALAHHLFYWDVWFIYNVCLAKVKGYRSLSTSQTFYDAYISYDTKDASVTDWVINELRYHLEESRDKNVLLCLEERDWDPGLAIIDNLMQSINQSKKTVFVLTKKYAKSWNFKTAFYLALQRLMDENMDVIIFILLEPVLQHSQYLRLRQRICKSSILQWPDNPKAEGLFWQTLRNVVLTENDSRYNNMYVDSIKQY
Assay type: cell-based
Protocol: (§1) TLR7/8/9 Inhibition Reporter Assays
(§2) HEK-Blue™-cells (Invivogen) overexpressing human TLR7, TLR8 or TLR9 receptors were used for screening inhibitors of these receptors using an inducible SEAP (secreted embryonic alkaline phosphatase) reporter gene under the control of the IFN-β minimal promoter fused to five NF-κB and AP-1-binding sites. Briefly, cells are seeded into Greiner 384 well plates (15000 cells per well for TLR7, 20,000 for TLR8 and 25,000 for TLR9) and then treated with test compounds in DMSO to yield a final dose response concentration range of 0.05 nM-50 μM. After a 30 minute compound pre-treatment at room temperature, the cells are then stimulated with a TLR7 ligand (gardiquimod at a final concentration of 7.5 μM), TLR8 ligand (R848 at a final concentration of 15.9 μM) or TLR9 ligand (ODN2006 at a final concentration of 5 nM) to activate NF-κB and AP-1 which induce the production of SEAP. After a 22 hour incubation at 37° C., 5% CO2, SEAP levels are determined with the addition of HEK-Blue™ Detection reagent (Invivogen), a cell culture medium that allows for detection of SEAP, according to manufacturer's specifications. The percent inhibition is determined as the % reduction in the HEK-Blue signal present in wells treated with agonist plus DMSO alone compared to wells treated with a known inhibitor.

IC50 [µM] | SMILES
> 3.13 | Cc1cc(-c2[nH]c3sc(N4CCN(CC(C)(C)O)C[C@H]4C)nc3c2C(C)C)cn2ncnc12 [Example 359, (R)-1-(4-(6-isopropyl-5-(8-methyl-[1,2,4]triazolo[1,5-a]pyridin-6-yl)-4H-pyrrolo[3,2-d]thiazol-2-yl)-3-methylpiperazin-1-yl)-2-methylpropan-2-ol]
> 3.13 | COCCN1CCN(c2nc3c(C(C)C)c(-c4cc(C)c5ncnn5c4)[nH]c3s2)[C@H](C)C1 [Example 357, (R)-6-isopropyl-2-(4-(2-methoxyethyl)-2-methylpiperazin-1-yl)-5-(8-methyl-[1,2,4]triazolo[1,5-a]pyridin-6-yl)-4H-pyrrolo[3,2-d]thiazole]
> 3.13 | Cc1cc(-c2[nH]c3sc(N4CCNC[C@H]4C)nc3c2C(C)C)cn2ncnc12 [Example 311, (R)-6-isopropyl-5-(8-methyl-[1,2,4]triazolo[1,5-a]pyridin-6-yl)-2-(2-methylpiperazin-1-yl)-4H-pyrrolo[3,2-d]thiazole]
> 3.13 | Cc1cc(-c2[nH]c3sc(N4CCN(CC(C)C)C[C@H]4C)nc3c2C(C)C)cn2ncnc12 [Example 361, (R)-2-(4-isobutyl-2-methylpiperazin-1-yl)-6-isopropyl-5-(8-methyl-[1,2,4]triazolo[1,5-a]pyridin-6-yl)-4H-pyrrolo[3,2-d]thiazole]

The compounds below were run against T2, human TLR9 (Homo sapiens, UniProt Q9NR96) (assay: TLR9 inhibition reporter assay (HEK-Blue SEAP, ODN2006 stimulation)). Settings: HEK-Blue cells overexpressing human TLR9, ODN2006 5 nM.
T2 sequence (Q9NR96 26-1032): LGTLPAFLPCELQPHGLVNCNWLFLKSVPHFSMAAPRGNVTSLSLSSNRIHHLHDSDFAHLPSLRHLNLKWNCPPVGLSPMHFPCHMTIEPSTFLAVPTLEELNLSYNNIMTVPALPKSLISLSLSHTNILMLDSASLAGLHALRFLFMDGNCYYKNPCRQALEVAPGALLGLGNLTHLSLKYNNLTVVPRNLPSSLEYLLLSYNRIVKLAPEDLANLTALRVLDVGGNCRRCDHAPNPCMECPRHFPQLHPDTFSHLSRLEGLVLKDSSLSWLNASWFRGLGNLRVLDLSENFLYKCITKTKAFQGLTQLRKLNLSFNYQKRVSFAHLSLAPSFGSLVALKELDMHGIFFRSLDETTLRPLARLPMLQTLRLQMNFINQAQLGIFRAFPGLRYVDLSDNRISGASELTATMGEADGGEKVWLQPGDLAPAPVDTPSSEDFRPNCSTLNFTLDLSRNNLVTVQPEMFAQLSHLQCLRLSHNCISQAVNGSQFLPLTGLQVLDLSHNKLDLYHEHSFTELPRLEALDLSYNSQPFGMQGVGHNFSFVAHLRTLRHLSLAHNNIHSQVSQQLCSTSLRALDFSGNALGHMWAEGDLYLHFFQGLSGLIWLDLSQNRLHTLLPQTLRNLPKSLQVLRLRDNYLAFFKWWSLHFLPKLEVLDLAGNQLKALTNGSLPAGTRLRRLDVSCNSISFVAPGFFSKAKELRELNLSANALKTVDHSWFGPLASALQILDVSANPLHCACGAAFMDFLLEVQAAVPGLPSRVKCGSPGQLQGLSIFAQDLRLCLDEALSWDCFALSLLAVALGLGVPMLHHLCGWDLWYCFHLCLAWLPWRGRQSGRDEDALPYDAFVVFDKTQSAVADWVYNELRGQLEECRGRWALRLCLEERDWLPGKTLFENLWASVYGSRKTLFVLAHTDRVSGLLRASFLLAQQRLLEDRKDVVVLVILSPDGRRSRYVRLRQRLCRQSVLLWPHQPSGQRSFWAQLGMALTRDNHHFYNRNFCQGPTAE
Assay type: cell-based
Protocol: as §1, §2

SMILES | IC50 [µM]
CC(C)c1c(-c2cn(C)c3ncccc23)[nH]c2sc(C3CCN(CC(N)=O)CC3)nc12 [Example 31, 2-(4-(6-isopropyl-5-(1-methyl-1H-pyrrolo[2,3-b]pyridin-3-yl)-4H-pyrrolo[3,2-d]thiazol-2-yl)piperidin-1-yl) acetamide] | > 50
Cc1c(-c2[nH]c3sc(N4CCN(C(=O)C5CCS(=O)(=O)CC5)C[C@@H]4C)nc3c2C(C)C)cn2ncnc2c1C [Example 347, (S)-(4-(5-(7,8-dimethyl-[1,2,4]triazolo[1,5-a]pyridin-6-yl)-6-isopropyl-4H-pyrrolo[3,2-d]thiazol-2-yl)-3-methylpiperazin-1-yl)(1,1-dioxidotetrahydro-2H-thiopyran-4-yl)methanone] | > 50
Cc1c(-c2[nH]c3sc(C4CCN(CC(=O)N(C)C)CC4)nc3c2C(C)C)cn(C)c(=O)c1C [Example 62, 2-(4-(6-isopropyl-5-(1,4,5-trimethyl-6-oxo-1,6-dihydropyridin-3-yl)-4H-pyrrolo[3,2-d]thiazol-2-yl)piperidin-1-yl)-N,N-dimethylacetamide] | > 50

Other lines, results leading:

IC50 [µM] | SMILES
> 50 | Cc1cc(-c2[nH]c3sc(N4CCN(CC(C)(C)O)C[C@H]4C)nc3c2C(C)C)cn2ncnc12 [Example 359, (R)-1-(4-(6-isopropyl-5-(8-methyl-[1,2,4]triazolo[1,5-a]pyridin-6-yl)-4H-pyrrolo[3,2-d]thiazol-2-yl)-3-methylpiperazin-1-yl)-2-methylpropan-2-ol]
> 50 | Cc1c(-c2[nH]c3sc(N4CCN(C5COC5)C[C@@H]4C)nc3c2C(C)C)cn2ncnc2c1C [Example 348, (S)-5-(7,8-dimethyl-[1,2,4]triazolo[1,5-a]pyridin-6-yl)-6-isopropyl-2-(2-methyl-4-(oxetan-3-yl)piperazin-1-yl)-4H-pyrrolo[3,2-d]thiazole]
> 50 | Cc1cc(-c2[nH]c3sc(N4CCN(C(=O)CN(C)C)C[C@H]4C)nc3c2C(C)C)cn2ncnc12 [Example 360, (R)-2-(dimethylamino)-1-(4-(6-isopropyl-5-(8-methyl-[1,2,4]triazolo[1,5-a]pyridin-6-yl)-4H-pyrrolo[3,2-d]thiazol-2-yl)-3-methylpiperazin-1-yl)ethan-1-one]
> 50 | CNC(=O)CN1CCC(c2nc3c(C(C)C)c(-c4cn(C)c(=O)c(C)c4C)[nH]c3s2)CC1 [Example 63, 2-(4-(6-isopropyl-5-(1,4,5-trimethyl-6-oxo-1,6-dihydropyridin-3-yl)-4H-pyrrolo[3,2-d]thiazol-2-yl)piperidin-1-yl)-N-methylacetamide]
> 50 | Cc1c(-c2[nH]c3sc(N4CCN(CCS(C)(=O)=O)C[C@H]4C)nc3c2C(C)C)cn2ncnc2c1C [Example 314, (R)-5-(7,8-dimethyl-[1,2,4]triazolo[1,5-a]pyridin-6-yl)-6-isopropyl-2-(2-methyl-4-(2-(methylsulfonyl)ethyl)piperazin-1-yl)-4H-pyrrolo[3,2-d]thiazole]
> 50 | Cc1c(-c2[nH]c3sc(CN4CCNC(=O)C4)nc3c2C(C)C)cn2ncnc2c1C [Example 406, 4-((5-(7,8-dimethyl-[1,2,4]triazolo[1,5-a]pyridin-6-yl)-6-isopropyl-4H-pyrrolo[3,2-d]thiazol-2-yl)methyl) piperazin-2-one]
> 50 | Cc1c(-c2[nH]c3sc(N4CCN(CC(N)=O)C[C@H]4C)nc3c2C(C)C)cn2ncnc2c1C [Example 313, (R)-2-(4-(5-(7,8-dimethyl-[1,2,4]triazolo[1,5-a]pyridin-6-yl)-6-isopropyl-4H-pyrrolo[3,2-d]thiazol-2-yl)-3-methylpiperazin-1-yl)acetamide]
